Measured values from patent US6355619B1, “Peptide tumor cell growth inhibitors” (Board of Regents, The University of Texas System, priority 1996, dated 2002).
Where two headings read alike, the source gives them in different places.

Legend:
[1] = molecular target: T1, MIP-1α binding to human neutrophils (Homo sapiens, UniProt P32246); assay: Binding of radiolabeled MIP-1α to human neutrophils
T1 construct: endogenous in cells; host or cells: human neutrophils

[2] = system: IL-8-induced neutrophil chemotaxis; assay: Neutrophil chemotaxis stimulated by IL-8 (leading front, Boyden chamber); type: cell-based, human
Experimental: (§1) FIG. 7. The Effect of Ac-RRWWCR-NH2 (SEQ ID NO:1) on Neutrophil Chemotaxis. Chemotaxis was performed in the presence of increasing concentration of Ac-RRWWCR-NH2 (SEQ ID NO:1) in both upper and lower chamber. Stimulants added to lower chamber were 10 nM IL-8 (●), 10 nM fMLP (▪), or media alone (◯) as control. Analysis of variance was used for multiple comparison.
(§2) Chemotaxis was performed using the leading front method as described by Zigmond and Hirsh (1973). IL-8 or controls were placed in the lower well of a Boyden chamber. A five micron pore size, 100 μm. thick cellulose nitrate filter (Sartorius Filter,. Inc., San Francisco, Calif.) was placed on the surface and the chamber was then assembled. A 200 μl aliquot of the neutrophil preparation (1×10^6 cells/ml) in RPMI-1640 media containing 1% BSA was added to the top of the filter and incubated at 37° C. for 30 min. The filter was then fixed, stained and mounted on a glass microscope slide. The leading front was determined by the position of the leading two cells. The distance that the leading two cells had moved through the filter was measured for six fields on each filter. The measurements were made with four filters for each set of conditions.

[3] = system: fMLP-induced neutrophil chemotaxis; assay: Neutrophil chemotaxis stimulated by fMLP; type: cell-based, human; conditions: 10 nM fMLP
Experimental: as §1, §2

[4] = system: neutrophils; assay: Checkerboard analysis for chemotactic activity of the peptide itself; type: cell-based, human
Experimental: as §2

[5] = system: IL-8-stimulated neutrophil enzyme release; assay: β-glucuronidase release from neutrophils stimulated by IL-8; type: cell-based, human
Experimental: (§3) FIG. 8. The Effect of Ac-RRWWCR-NH2 (SEQ ID NO:1) on β-glucuronidase Release. Neutrophils pretreated with cytochalasin B were incubated with 100 nM IL-8 (●), 100 nM fMLP (▪), 100 nM C5a (_) or 100 nM leukotriene B4 ? or without any stimulant (◯) in the presence of increasing concentration of Ac-RRWWCR-NH2 (SEQ ID NO:1) for 30 min at 37° C. β-glucuronidase activity of supernatants were measured using phenolphthalein-glucuronic acid as substrate. Analysis of variance was used for multiple comparison.
(§4) Neutrophil enzyme release was studied by a modification of the method of Goldstein and colleagues (Goldstein et al., 1973). Cytochalasin B (Sigma Chemical Co.) was stored in dimethyl sulfoxide at a concentration of 5 mg/ml and was diluted to a concentration of 50 μg/ml in Hank's Balanced Salt Solution (HBSS) immediately before use. Cytochalasin B, 200 μl, was added to 1 ml of suspension of neutrophils, 6.25×10^6 cells/ml in HBSS, to achieve a final cytochalasin B concentration of […]. The solution was then incubated in 96 well plates at room temperature for 10 min. The stimulant, 100 μl, was added, and this cell suspension was incubated for 30 min at 37° C. The plates were centrifuged and 100 μl of supernatant was removed. […] After 16 hr incubation at 37° C., 200 μl of 0.2 M Glycine in 0.2 M NaCl, pH10.4 was added to each well and OD540 was measured as the enzyme activity.

[6] = system: fMLP-stimulated neutrophil enzyme release; assay: β-glucuronidase release from neutrophils stimulated by fMLP; type: cell-based, human; conditions: 100 nM fMLP
Experimental: as §3, §4

[7] = system: NCI-H292 (squamous cell carcinoma of lung); assay: Growth of NCI-H292, cell count; type: cell-based; conditions: NCI-H292, 7 days, media replaced every 24 hour
Experimental: FIG. 19. The effect of Antileukinate on growth of NCI-H292 (squamous cell carcinoma of lung). NCI-H292 cells were plated at a density of 5×10^3 cells in 24-well plate with growth medium. After the cells adhered to the plate, supernatants were aspirated and culture media containing various concentrations of Antileukinate were added to the wells. The media was replaced every 24 hour and the cells were cultured for 7 days. After incubation, cells were detatched with trypsin-EDTA and the cell number was counted using a hemocytometer. Cell number was decreased in a dose-dependent manner and there are significant differences from control at concentrations greater than, or equal to 50 μM of Antileukinate (p<0.05).

[8] = system: A375P melanoma cells; assay: Tumor cell growth, A375P; type: cell-based
[9] = system: lung adenocarcinoma cell line KS-LU-1; assay: Tumor cell growth, KS-LU-1; type: cell-based
[10] = molecular target: IL-8 (Homo sapiens, UniProt P10145); assay: Interaction of the peptide with IL-8; type: binding
Sequence of IL-8 (P10145 28-99): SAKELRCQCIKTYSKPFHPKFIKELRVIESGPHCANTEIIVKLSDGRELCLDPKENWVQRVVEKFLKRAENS

[11] = system: neutrophils
Experimental: Cytotoxicity Test. […] (●) or in RPMI-1640 media containing 1% BSA for 30 min at 37° C. (◯).
This was achieved by measuring the amount of ^51Cr released from neutrophils, as follows: The neutrophil preparation (2×10^7/ml) in RPMI-1640 media containing 10% donor's plasma was incubated with 500 μCi of Na2^51CrO4 (Du Pont Co.) for 60 min at 37° C. The cells were washed 3 times, resuspended in the media at the concentration of 1×10^7/ml, and then incubated for 30 min at 37° C. to allow spontaneous lysis of marginally viable cells. […] The buffer and the conditions of incubation simulated either the binding assay or the chemotactic assay. After the incubation, the tubes were centrifuged at 300×g for 7 min at 4° C. and the radioactivity in the supernatant was then counted in a gamma radiation spectrometer. Triplicate tubes containing buffer alone or 2% SDS were used to determine spontaneous and maximum release, respectively. The percentage lysis was calculated by using the following formula: [formula]

[12] = system: RPMI-7951; conditions: 16 hr
Experimental: (§5) The cell lines (4×10^5 cells/well) in RPMI-1640 medium containing 10% fetal bovine serum were incubated with 10 μCi of Na2^51CrO4 (DuPont NEN Co.) for 60 min at 37° C. in a 24 well tissue culture plate. The cells were washed 3 times and then incubated in cell culture medium for 30 min at 37° C. to allow spontaneous lysis of marginally viable cells. […] The cells were cultured for 16 hr at 37° C. and then the radioactivity in the supernatants was counted in a gamma radiation spectrometer. Quadriplicate wells received cell culture medium alone or 2% SDS to determine spontaneous and maximum release, respectively. The percentage lysis was calculated by using the following formula: [formula]

[13] = system: Hep G2; conditions: 16 hr
Experimental: as §5

[14] = peptide below filter 1.0 μM, above filter 5.0 μM
[15] = peptide below filter 1.0 μM, above filter 12.5 μM
[16] = peptide below filter 1.0 μM, above filter 25.0 μM
[17] = peptide below filter 5.0 μM, above filter 1.0 μM
[18] = peptide below filter 5.0 μM, above filter 12.5 μM
[19] = peptide below filter 5.0 μM, above filter 25.0 μM
[20] = peptide below filter 12.5 μM, above filter 1.0 μM
[21] = peptide below filter 12.5 μM, above filter 5.0 μM
[22] = peptide below filter 12.5 μM, above filter 25.0 μM
[23] = peptide below filter 25.0 μM, above filter 1.0 μM
[24] = peptide below filter 25.0 μM, above filter 5.0 μM
[25] = peptide below filter 25.0 μM, above filter 12.5 μM

T1 sequence (P32246 whole entry): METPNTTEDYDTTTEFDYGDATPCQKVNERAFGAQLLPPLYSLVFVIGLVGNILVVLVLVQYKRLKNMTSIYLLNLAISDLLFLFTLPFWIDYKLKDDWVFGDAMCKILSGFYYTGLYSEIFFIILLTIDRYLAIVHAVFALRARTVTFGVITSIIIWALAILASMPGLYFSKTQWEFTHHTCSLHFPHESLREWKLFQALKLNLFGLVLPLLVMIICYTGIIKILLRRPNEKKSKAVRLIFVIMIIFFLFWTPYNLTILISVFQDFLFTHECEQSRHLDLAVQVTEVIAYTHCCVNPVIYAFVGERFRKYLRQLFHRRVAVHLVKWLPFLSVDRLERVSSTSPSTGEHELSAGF

RRWWCR [Ac-RRWWCR-NH2] was tested, and the “effect on binding of radiolabeled MIP-1α” value [1] was “did not affect the binding”, the “peptide concentration significantly suppressing chemotaxis” value ([2]; chemotaxis induced by 10 nM IL-8) was 50 lM and the “peptide concentration significantly inhibiting chemotaxis” value ([2]; neutrophils stimulated with 10 nM IL-8) was 50 µM. For the same substance, the “effect on chemotaxis induced by fMLP” value [3] was “had no effect on chemotaxis”, the “chemotactic activity of the peptide (checkerboard analysis)” value [4] was “not chemotactic for neutrophils” and the “effect on chemokinesis of neutrophils” value ([4]; control studies, media alone) was “had no effect on chemokinesis”. The “migration, mean ± SD of experimental observations” value (from here on “migration, mean ± SD”) ([4]; peptide below filter 1.0 μM, above filter 1.0 μM) was 27.8 ± 5.5, the “calculated migration expected if cells responded to absolute concentration, not gradient” value [4, 14] was 29.1 and the “migration, mean ± SD” value [4, 14] was 28.0 ± 4.7. The “calculated migration expected if cells responded to absolute concentration, not gradient” value [4, 15] was 24.2, the “migration, mean ± SD” value [4, 15] was 25.6 ± 4.0 and the “calculated migration expected if cells responded to absolute concentration, not gradient” value [4, 16] was 24.3. For the same substance, the “migration, mean ± SD” value [4, 16] was 26.7 ± 6.3, the “calculated migration expected if cells responded to absolute concentration, not gradient” value [4, 17] was 28.0 and the “migration, mean ± SD” value [4, 17] was 29.6 ± 6.3. For the same substance, the “migration, mean ± SD” value ([4]; peptide below filter 5.0 μM, above filter 5.0 μM) was 29.3 ± 7.2, the “calculated migration expected if cells responded to absolute concentration, not gradient” value [4, 18] was 23.7 and the “migration, mean ± SD” value [4, 18] was 24.2 ± 5.4. The “calculated migration expected if cells responded to absolute concentration, not gradient” value [4, 19] was 24.4, the “migration, mean ± SD” value [4, 19] was 25.9 ± 6.7 and the “calculated migration expected if cells responded to absolute concentration, not gradient” value [4, 20] was 28.4. For the same substance, the “migration, mean ± SD” value [4, 20] was 27.0 ± 5.5, the “calculated migration expected if cells responded to absolute concentration, not gradient” value [4, 21] was 28.5 and the “migration, mean ± SD” value [4, 21] was 27.5 ± 4.8. For the same substance, the “migration, mean ± SD” value ([4]; peptide below filter 12.5 μM, above filter 12.5 μM) was 22.9 ± 5.9, the “calculated migration expected if cells responded to absolute concentration, not gradient” value [4, 22] was 24.5 and the “migration, mean ± SD” value [4, 22] was 24.8 ± 5.8. The “calculated migration expected if cells responded to absolute concentration, not gradient” value [4, 23] was 28.4, the “migration, mean ± SD” value [4, 23] was 30.9 ± 4.7 and the “calculated migration expected if cells responded to absolute concentration, not gradient” value [4, 24] was 27.1. For the same substance, the “migration, mean ± SD” value [4, 24] was 27.5 ± 4.9, the “calculated migration expected if cells responded to absolute concentration, not gradient” value [4, 25] was 23.1 and the “migration, mean ± SD” value [4, 25] was 27.9 ± 4.8. For the same substance, the “migration, mean ± SD” value ([4]; peptide below filter 25.0 μM, above filter 25.0 μM) was 24.7 ± 3.8, the EC50 ([5]; read-out: EC50, inhibition of enzyme release from neutrophils stimulated by IL-8) was 800 nM and the “peptide concentration inhibiting β-glucuronidase release” value ([5]; stimulated by 100 nM IL-8) was 2 µM. For the same substance, the “effect on enzyme release stimulated by fMLP” value [6] was “did not affect the enzyme release”, the “concentrations with significant difference in cell number from control (p<0.05)” value [7] was no less than 50 µM and the “effect on cell growth” value [8] was “suppresses the growth”. For the same substance, the “effect on cell growth” value [9] was “inhibits growth”, the “interaction of the peptide with IL-8” value [10] was “does not interact with IL-8” and the “cell lysis under conditions used in chemotaxis” value ([11]; 100 μM peptide, RPMI-1640 1% BSA, 30 min at 37° C.) was “had no effect”. For the same substance, the “cells damaged under conditions used in chemotaxis” value ([11]; 500 μM peptide, RPMI-1640 1% BSA, 30 min at 37° C.) was roughly 25%, the “percentage of cells lysed” value ([11]; PBS containing 0.1% BSA, 90 min at 4° C., up to 500 μM peptide) was “remained near control level” and the “% cell lysis” value ([12]; RPMI-7951, 1 μM peptide) was −0.8 ± 2.2%. For the same substance, the “% cell lysis” value ([12]; RPMI-7951, 5 μM peptide) was −2.6 ± 3.7%, the “% cell lysis” value ([12]; RPMI-7951, 20 μM peptide) was −3.4 ± 6.3% and the “% cell lysis” value ([12]; RPMI-7951, 100 μM peptide) was 6.8 ± 11.1%. The “% cell lysis” value ([13]; Hep G2, 1 μM peptide) was −2.1 ± 7.5%, the “% cell lysis” value ([13]; Hep G2, 5 μM peptide) was −0.8 ± 8.3% and the “% cell lysis” value ([13]; Hep G2, 20 μM peptide) was 5.8 ± 8.3%. For the same substance, the “% cell lysis” value ([13]; Hep G2, 100 μM peptide) was 0.9 ± 2.9%.
